Test results reported in article PMC5053573, “Structure-Based Design of Tetrahydroisoquinoline-7-carboxamides as Selective Discoidin Domain Receptor 1 (DDR1) Inhibitors” (Journal of Medicinal Chemistry, 2016).

Legend:
Assay in all cases: biochemical
Details in all cases: read-out: %Ctrl @ 1000nM
[1] = target: ABL1(E255K)-phosphorylated (Homo sapiens, UniProt P00519, E255K)
CAMK2G = CAMK2G (Homo sapiens, UniProt Q13555)
CDK8 = CDK8 (Homo sapiens, UniProt P49336)
CDKL5 = CDKL5 (Homo sapiens, UniProt O76039)
CLK3 = CLK3 (Homo sapiens, UniProt P49761)
CSF1R-autoinhibited = CSF1R-autoinhibited (Homo sapiens, UniProt P07333)
DAPK3 = DAPK3 (Homo sapiens, UniProt O43293)
DRAK2 = target: T1, DRAK2 (Homo sapiens, UniProt O94768)
T1 construct: gene STK17B

EGFR(L858R,T790M) = EGFR(L858R,T790M) (Homo sapiens, UniProt P00533, L858R/T790M)
ERK3 = target: T2, ERK3 (Homo sapiens, UniProt Q16659)
T2 construct: gene MAPK6

FGFR2 = FGFR2 (Homo sapiens, UniProt P21802)
FLT3(D835H) = FLT3(D835H) (Homo sapiens, UniProt P36888, D835H)
FLT3(R834Q) = FLT3(R834Q) (Homo sapiens, UniProt P36888, R834Q)
GSK3B = GSK3B (Homo sapiens, UniProt P49841)
IGF1R = IGF1R (Homo sapiens, UniProt P08069)
INSRR = INSRR (Homo sapiens, UniProt P14616)
KIT(D816V) = KIT(D816V) (Homo sapiens, UniProt P10721, D816V)
LCK = LCK (Homo sapiens, UniProt P06239)
MEK1 = target: T3, MEK1 (Homo sapiens, UniProt Q02750)
T3 construct: gene MAP2K1

MEK6 = target: T4, MEK6 (Homo sapiens, UniProt P52564)
T4 construct: gene MAP2K6

MLK2 = target: T5, MLK2 (Homo sapiens, UniProt Q02779)
T5 construct: gene MAP3K10

NEK4 = NEK4 (Homo sapiens, UniProt P51957)
NEK5 = NEK5 (Homo sapiens, UniProt Q6P3R8)
PAK7 = target: T6, PAK7 (Homo sapiens, UniProt Q9P286)
T6 construct: gene PAK5

PLK2 = PLK2 (Homo sapiens, UniProt Q9NYY3)
PLK3 = PLK3 (Homo sapiens, UniProt Q9H4B4)
QSK = target: T7, QSK (Homo sapiens, UniProt Q9Y2K2)
T7 construct: gene SIK3

RET(V804L) = RET(V804L) (Homo sapiens, UniProt P07949, V804L)
RIPK1 = RIPK1 (Homo sapiens, UniProt Q13546)
ROS1 = ROS1 (Homo sapiens, UniProt P08922)
SRPK1 = SRPK1 (Homo sapiens, UniProt Q96SB4)
SRPK3 = SRPK3 (Homo sapiens, UniProt Q9UPE1)
SgK110 = target: T8, SgK110 (Homo sapiens, UniProt P0C264)
T8 construct: gene SBK3

TGFBR2 = TGFBR2 (Homo sapiens, UniProt P37173)
p38-gamma = target: T9, p38-gamma (Homo sapiens, UniProt P53778)
T9 construct: gene MAPK12

Sequence of PLK3 (Q9H4B4 whole entry): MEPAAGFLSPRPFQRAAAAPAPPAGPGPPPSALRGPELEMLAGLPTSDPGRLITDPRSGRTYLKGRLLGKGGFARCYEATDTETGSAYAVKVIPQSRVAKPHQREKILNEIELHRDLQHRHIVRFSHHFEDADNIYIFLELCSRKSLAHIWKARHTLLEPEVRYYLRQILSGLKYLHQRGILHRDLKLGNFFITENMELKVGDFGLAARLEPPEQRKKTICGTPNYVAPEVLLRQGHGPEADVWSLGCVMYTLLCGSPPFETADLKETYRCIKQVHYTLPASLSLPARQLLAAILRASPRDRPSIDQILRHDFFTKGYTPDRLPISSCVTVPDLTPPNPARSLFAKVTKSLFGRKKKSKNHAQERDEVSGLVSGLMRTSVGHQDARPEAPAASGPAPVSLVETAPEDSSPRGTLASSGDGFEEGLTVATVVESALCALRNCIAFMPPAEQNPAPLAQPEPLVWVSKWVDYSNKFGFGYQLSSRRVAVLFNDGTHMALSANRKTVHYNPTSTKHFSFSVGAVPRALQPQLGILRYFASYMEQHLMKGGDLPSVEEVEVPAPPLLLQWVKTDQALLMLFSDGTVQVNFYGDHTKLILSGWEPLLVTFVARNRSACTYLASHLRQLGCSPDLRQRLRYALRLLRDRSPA
Sequence of DAPK3 (O43293 whole entry): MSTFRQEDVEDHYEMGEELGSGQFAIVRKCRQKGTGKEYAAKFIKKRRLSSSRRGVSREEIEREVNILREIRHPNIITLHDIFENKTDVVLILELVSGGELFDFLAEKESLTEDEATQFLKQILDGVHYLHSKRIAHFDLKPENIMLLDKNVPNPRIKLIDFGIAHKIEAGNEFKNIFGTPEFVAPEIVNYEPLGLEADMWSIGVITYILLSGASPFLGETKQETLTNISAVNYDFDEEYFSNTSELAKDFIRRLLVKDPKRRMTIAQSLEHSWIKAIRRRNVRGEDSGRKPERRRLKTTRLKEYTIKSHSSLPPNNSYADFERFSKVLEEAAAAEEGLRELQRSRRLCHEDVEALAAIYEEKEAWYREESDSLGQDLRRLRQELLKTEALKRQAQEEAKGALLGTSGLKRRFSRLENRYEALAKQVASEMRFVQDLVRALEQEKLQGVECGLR
Sequence of PLK2 (Q9NYY3 whole entry): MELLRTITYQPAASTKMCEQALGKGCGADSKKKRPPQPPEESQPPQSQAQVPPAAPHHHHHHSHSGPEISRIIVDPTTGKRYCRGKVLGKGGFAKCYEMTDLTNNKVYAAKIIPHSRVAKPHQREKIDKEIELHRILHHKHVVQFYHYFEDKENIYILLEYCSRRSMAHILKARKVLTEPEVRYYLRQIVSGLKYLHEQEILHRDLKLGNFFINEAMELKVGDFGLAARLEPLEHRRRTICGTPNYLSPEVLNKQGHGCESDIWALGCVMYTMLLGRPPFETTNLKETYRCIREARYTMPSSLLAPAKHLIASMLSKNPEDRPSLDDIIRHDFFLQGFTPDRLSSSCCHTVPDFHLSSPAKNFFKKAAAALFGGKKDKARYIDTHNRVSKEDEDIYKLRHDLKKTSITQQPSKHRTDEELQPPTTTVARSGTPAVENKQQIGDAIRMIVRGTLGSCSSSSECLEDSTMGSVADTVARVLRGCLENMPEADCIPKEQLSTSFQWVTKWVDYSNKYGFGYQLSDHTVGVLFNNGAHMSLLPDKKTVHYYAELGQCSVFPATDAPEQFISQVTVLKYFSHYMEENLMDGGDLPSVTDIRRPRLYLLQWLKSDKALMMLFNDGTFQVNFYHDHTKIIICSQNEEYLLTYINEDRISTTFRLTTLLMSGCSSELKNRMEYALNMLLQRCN
Sequence of EGFR(L858R,T790M) (P00533 whole entry T790M/L858R): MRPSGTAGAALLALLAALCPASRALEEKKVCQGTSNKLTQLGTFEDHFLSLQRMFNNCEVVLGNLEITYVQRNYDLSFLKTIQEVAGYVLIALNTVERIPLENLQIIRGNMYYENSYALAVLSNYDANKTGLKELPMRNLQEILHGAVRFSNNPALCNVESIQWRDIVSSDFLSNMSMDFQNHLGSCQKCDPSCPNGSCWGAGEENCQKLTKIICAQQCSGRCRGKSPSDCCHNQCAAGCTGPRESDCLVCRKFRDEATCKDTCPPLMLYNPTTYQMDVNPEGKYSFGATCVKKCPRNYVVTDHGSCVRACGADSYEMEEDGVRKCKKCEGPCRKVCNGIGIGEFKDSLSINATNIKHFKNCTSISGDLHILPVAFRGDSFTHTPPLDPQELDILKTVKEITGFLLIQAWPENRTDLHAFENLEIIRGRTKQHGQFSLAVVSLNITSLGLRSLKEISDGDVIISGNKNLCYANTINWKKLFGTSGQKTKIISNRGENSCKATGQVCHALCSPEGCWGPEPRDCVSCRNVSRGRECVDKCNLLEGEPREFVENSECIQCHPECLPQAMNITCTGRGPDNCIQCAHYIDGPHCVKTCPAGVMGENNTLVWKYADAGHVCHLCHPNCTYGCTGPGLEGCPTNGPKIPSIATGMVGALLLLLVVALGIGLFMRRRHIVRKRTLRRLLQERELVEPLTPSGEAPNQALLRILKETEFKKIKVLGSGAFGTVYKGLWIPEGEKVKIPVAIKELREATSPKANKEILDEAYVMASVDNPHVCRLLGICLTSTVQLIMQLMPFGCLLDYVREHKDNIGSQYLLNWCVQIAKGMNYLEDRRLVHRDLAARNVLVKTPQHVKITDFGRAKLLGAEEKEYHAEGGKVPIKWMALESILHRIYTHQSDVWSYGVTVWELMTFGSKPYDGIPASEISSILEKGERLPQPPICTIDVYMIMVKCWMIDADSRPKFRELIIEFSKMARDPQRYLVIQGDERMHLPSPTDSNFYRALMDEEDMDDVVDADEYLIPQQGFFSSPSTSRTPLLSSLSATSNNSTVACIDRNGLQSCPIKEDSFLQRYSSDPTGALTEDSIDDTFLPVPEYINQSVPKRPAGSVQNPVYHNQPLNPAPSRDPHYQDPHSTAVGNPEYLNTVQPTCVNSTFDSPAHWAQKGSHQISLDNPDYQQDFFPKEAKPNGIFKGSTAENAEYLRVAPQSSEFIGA
Sequence of SRPK1 (Q96SB4 whole entry): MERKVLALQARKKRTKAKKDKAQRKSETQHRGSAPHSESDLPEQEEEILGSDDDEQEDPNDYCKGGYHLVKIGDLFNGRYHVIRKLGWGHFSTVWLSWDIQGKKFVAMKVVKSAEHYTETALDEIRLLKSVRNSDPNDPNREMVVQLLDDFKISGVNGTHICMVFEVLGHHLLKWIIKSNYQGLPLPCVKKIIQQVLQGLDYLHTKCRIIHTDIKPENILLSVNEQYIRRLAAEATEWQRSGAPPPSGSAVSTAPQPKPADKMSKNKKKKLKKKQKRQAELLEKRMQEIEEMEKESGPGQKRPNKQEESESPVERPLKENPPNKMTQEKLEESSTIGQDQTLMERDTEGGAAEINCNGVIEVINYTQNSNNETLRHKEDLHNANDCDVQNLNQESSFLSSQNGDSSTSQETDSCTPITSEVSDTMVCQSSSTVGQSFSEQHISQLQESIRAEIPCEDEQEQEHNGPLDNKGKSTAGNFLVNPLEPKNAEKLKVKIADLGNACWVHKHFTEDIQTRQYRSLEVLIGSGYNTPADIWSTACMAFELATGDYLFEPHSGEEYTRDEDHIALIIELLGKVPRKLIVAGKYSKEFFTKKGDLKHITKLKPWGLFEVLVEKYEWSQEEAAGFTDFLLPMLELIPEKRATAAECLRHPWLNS
T1 sequence (O94768 whole entry): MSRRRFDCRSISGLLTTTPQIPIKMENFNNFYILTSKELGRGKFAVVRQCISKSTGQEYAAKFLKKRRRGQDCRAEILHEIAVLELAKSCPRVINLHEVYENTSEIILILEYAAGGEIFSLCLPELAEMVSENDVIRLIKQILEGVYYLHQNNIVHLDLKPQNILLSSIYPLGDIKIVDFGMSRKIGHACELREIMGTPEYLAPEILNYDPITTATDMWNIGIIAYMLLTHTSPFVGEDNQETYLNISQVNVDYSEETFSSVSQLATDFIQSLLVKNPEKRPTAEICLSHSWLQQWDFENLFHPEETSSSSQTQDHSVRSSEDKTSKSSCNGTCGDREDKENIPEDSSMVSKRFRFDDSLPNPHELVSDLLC
Sequence of CDK8 (P49336 whole entry): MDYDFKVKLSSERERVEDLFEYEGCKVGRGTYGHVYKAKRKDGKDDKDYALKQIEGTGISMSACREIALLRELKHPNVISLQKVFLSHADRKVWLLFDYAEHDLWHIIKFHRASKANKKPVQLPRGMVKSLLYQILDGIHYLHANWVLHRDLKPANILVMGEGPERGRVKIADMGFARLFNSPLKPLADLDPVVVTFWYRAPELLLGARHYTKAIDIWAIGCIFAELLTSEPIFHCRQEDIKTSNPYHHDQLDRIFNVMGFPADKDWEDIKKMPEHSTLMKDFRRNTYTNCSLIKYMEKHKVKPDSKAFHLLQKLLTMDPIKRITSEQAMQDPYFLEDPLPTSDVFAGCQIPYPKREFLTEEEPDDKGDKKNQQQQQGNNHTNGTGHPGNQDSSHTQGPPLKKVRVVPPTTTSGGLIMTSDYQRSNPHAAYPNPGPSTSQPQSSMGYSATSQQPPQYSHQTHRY
Sequence of CAMK2G (Q13555 whole entry): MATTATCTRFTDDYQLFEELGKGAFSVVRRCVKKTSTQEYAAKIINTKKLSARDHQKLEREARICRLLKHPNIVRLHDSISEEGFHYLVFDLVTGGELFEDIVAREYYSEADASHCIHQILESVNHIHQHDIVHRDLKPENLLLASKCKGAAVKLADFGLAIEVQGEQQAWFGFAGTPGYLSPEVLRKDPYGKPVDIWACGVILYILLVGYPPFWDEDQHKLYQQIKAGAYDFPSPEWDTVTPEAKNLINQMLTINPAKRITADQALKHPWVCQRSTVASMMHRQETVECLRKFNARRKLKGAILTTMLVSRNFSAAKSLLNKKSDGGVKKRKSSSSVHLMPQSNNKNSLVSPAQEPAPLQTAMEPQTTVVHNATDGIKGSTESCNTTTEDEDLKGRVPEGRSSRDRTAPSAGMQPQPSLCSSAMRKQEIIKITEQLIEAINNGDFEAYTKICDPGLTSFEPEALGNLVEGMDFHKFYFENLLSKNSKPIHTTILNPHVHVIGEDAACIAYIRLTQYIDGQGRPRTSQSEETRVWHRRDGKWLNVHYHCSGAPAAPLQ

remaining activity at 1 µM [1]: 56%
remaining activity at 1 µM (CAMK2G): 63%
remaining activity at 1 µM (CDK8): 37%
remaining activity at 1 µM (CDKL5): 100%
remaining activity at 1 µM (CLK3): 95%
remaining activity at 1 µM (CSF1R-autoinhibited): 93%
remaining activity at 1 µM (DAPK3): 69%
remaining activity at 1 µM (DRAK2): 97%
remaining activity at 1 µM (EGFR(L858R,T790M)): 100%
remaining activity at 1 µM (ERK3): 96%
remaining activity at 1 µM (FGFR2): 74%
remaining activity at 1 µM (FLT3(D835H)): 59%
remaining activity at 1 µM (FLT3(R834Q)): 86%
remaining activity at 1 µM (GSK3B): 94%
remaining activity at 1 µM (IGF1R): 100%
remaining activity at 1 µM (INSRR): 100%
remaining activity at 1 µM (KIT(D816V)): 77%
remaining activity at 1 µM (LCK): 74%
remaining activity at 1 µM (MEK1): 94%
remaining activity at 1 µM (MEK6): 98%
remaining activity at 1 µM (MLK2): 98%
remaining activity at 1 µM (NEK4): 98%
remaining activity at 1 µM (NEK5): 95%
remaining activity at 1 µM (PAK7): 98%
remaining activity at 1 µM (PLK2): 100%
remaining activity at 1 µM (PLK3): 100%
remaining activity at 1 µM (QSK): 94%
remaining activity at 1 µM (RET(V804L)): 94%
remaining activity at 1 µM (RIPK1): 98%
remaining activity at 1 µM (ROS1): 86%
remaining activity at 1 µM (SRPK1): 100%
remaining activity at 1 µM (SRPK3): 93%
remaining activity at 1 µM (SgK110): 98%
remaining activity at 1 µM (TGFBR2): 94%
remaining activity at 1 µM (p38-gamma): 79%
SMILES: Cc1cn(-c2cc(NC(=O)c3ccc4c(c3)CN(c3cncnc3)C[C@@H]4C)cc(C(F)(F)F)c2)cn1 [Compound 6j]
